{
  "source": "paper PMC10961089",
  "about": "“Epidermal growth factor receptor inhibition potentiates chemotherapeutics‐mediated sensitization of metastatic breast cancer stem cells” (Cancer Reports, 2024)",
  "key": {"MDA‐MB‐231": {"test_system": "MDA‐MB‐231", "test": "MTT cytotoxicity assay in MDA-MB-231", "type": "cell-based, human", "conditions": "compound alone, MTT, 48 h; read-out: IC50 (μM) in MDA‐MB‐231 (mean ± SD)", "method": "(§1) TNBC cell lines (ER^−, PR^−, HER2^−)—MDA‐MB‐231 (ATCC HTB‐26) and MDA‐MB‐468 (ATCC HTB‐132) were procured from ATCC and cultured in Roswell Park Memorial Institute Media (RPMI‐1640) and Dulbecco's Modified Eagle's Medium (DMEM), respectively, supplemented with 10% FBS and 1% Penicillin–Streptomycin solution. Cells were maintained at 5% CO2 at 37°C in a humid atmosphere.[6], [26] The control cell line, Human Embryonic Kidney—HEK‐293 (ATCC CRL‐3216) was also obtained from ATCC and cultured in DMEM.[5], [25]\n(§2) To evaluate the cytotoxicity profile of the potential EGFR inhibitors (compounds) against TNBC cell lines—MDA‐MB‐231, MDA‐MB‐468, and control cell line HEK293, cells were seeded at a cell density of 5 × 10^3 cells/well in complete medium onto 96‐well plates. Here, the non‐tumoral human embryonic kidney (HEK293) epithelial cells have been utilized as a control cell line to compare the IC50 values of the compounds between cancerous and non‐cancerous cell lines with a big therapeutic window. The use of HEK293 cells as compared to other non‐cancerous cell lines are easy to maintain in culture and the results obtained from HEK293 are highly reproducible and consistent.[27] Briefly, the cells were incubated at 37°C for 12 h to attain morphology. After 12 h, cells were serum starved by replacing the complete media with media containing 2% FBS to synchronize the cells. Post‐12 h of synchronization, cells were treated with an increasing concentration (0.1, 1, 10, 100 μM) of all the compounds (1a, 1b, 1c, 1d, 1e, 1f, 1g, 1h, 1i, 1j, 1k). Separately, TNBC cells were treated with increasing concentration (0.01, 0.1, 1 μM) of Doxorubicin (Sigma‐Aldrich, St Louis, MO, USA) in presence of the selected compounds (1c, 1e, 1g, 1h, 1j, and 1k) at 5 μM concentration or combination of selected compounds (1c, 1e, 1g, 1h, 1j, and 1k) at increasing concentration (1, 2.5, 5, 10 μM) in presence of Doxorubicin (0.01 μM) for 48 h. In addition, the CD24^+‐breast cancer cells and CD24^−/CD44^+‐breast CSC populations, being sorted by Magnetic Activated Cell Sorting (MACS) from MDA‐MB‐231 cells as described previously,[6] were also treated with increasing concentrations of Doxorubicin (0.01–1 μM), in the presence or absence of 1e (10–30 μM), or PD153035 (10 μM) (Sigma‐Aldrich, St Louis, MO, USA). MTT assay was performed to evaluate the cytotoxicity of these compounds against the TNBC cell lines, and the sorted populations as described previously.[6] All the experiments were performed thrice and the IC50 values of the compounds and Doxorubicin were calculated using GraphPad Prism software version 9 (San Diego, CA, USA). Similarly, the percent inhibition of the sorted cell populations by chemotherapeutic drug, doxorubicin in the absence/presence of potent compound 1e or standard EGFR inhibitor, PD153035 was evaluated utilizing GraphPad Prism Version 9 (San Diego, CA, USA)."}, "[1]": {"test_system": "human CD44, ALDH1A1, Fibronectin, N‐Cadherin, Vimentin in tumor tissue", "test": "qRT-PCR of human CSC/EMT genes in tumor tissues", "type": "in vivo, C57BL/6 mice", "method": "Additionally, total RNA was isolated from tumor tissues and utilized for cDNA synthesis (Thermo Scientific, Massachusetts, USA). To determine the transcriptional regulation of expression of EMT genes in tumor tissues subjected to various treatment regimes, quantitative real‐time PCR (qRT‐PCR) analysis was performed as described previously[28] using human gene‐specific forward and reverse primers of EMT genes. Amplification of Eukaryotic 18S rRNA served as an internal control and was utilized to calculate the fold change in expression.[29]\nAnimal studies have been carried out with the prior approval of the Institutional Animal Ethics Committee (IICT/IAEC/025/2023). C57BL/6 female mice of age 6–8 weeks (N = 35) were initially immunosuppressed with cyclophosphamide (50 mg/kg of body weight, i.p) on alternate days for 2 weeks. For generating a preclinical orthotopic xenograft tumor model, 2 × 10^6 GFP expressing sorted stable CD24^+‐breast cancer cells and CD24^−/CD44^+‐breast CSCs were orthotopically xeno‐transplanted subcutaneously at the fourth mammary fat pad of immune‐suppressed mice (n = 5/group). Subsequently, intratumoral administration of Doxorubicin at a low dose (2.5 mg/kg of body weight), high dose (10 mg/kg of body weight), and/or combinatorial treatment of the potent EGFR inhibitor, compound 1e (50 mg/kg of body weight) or the commercial EGFR inhibitor, PD153035 (50 mg/kg of body weight) with a low dose of doxorubicin was performed to the palpable tumors of breast CSCs at day‐3 post‐transplantation."}, "[2]": {"test_system": "CD24^+‐breast cancer cells", "test": "Cell migration (chemotaxis), Boyden-Chamber assay, sorted cells", "type": "cell-based, human", "conditions": "Doxorubicin 0.01 μM + 1e 5 μM vs 10% FBS", "method": "TNBC cell lines—MDA‐MB‐231, MDA‐MB‐468, and the sorted CD24^+‐breast cancer cells, and CD24^−/CD44^+‐breast CSC populations from MDA‐MB‐231 [6] were seeded at a density of 1 × 10^6 cells/well to evaluate their migratory potential by Boyden‐Chamber assay. […] At the end of the treatment period, the cells were plated at a density of 5 × 10^3 cells/well in the upper chamber of the Boyden chamber assembly and 10% FBS in the lower chamber was used as a chemoattractant. Separately, the cells in the upper chamber were treated with Doxorubicin (0.01–0.1 μM) alone or with the potential EGFR inhibitors (compounds—1c, 1e, 1g, 1h, 1j, and 1k (5 μM) based on their low IC50 values) or a commercial EGFR inhibitor, PD153035 (10 μM) and incubated for 4 h followed by fixation and staining as described previously.[28], [29]"}, "HEK‐293": {"test_system": "HEK‐293", "test": "MTT cytotoxicity assay in control cell line HEK-293", "type": "cell-based, human", "conditions": "compound alone, non-tumoral control cell line, read-out: IC50 (μM) in HEK‐293 (mean ± SD)", "method": "as §1, §2"}, "[3]": {"test_system": "Bax and Cytochrome‐C in MDA‐MB‐231 cells", "test": "Gene expression of apoptotic genes, semi-quantitative RT-PCR", "type": "cell-based, human", "conditions": "MDA-MB-231, doxorubicin + compound 5 μM, 24 h", "method": "Briefly, the cells were incubated at 37°C with serum starvation followed by culturing as described above. […] Briefly, the template RNA (1 μg) was utilized for cDNA synthesis using a First‐strand cDNA synthesis kit (Thermo Scientific, USA) according to the manufacturer's protocol. Thermal cycler (Mastercycler® nexus, Eppendorf) was used for the amplification of the expression of apoptotic genes—Bax, Bcl2, Cytochrome‐C, and target gene EGFR with the help of Dream Taq DNA Polymerase PCR Master Mix (Thermo Scientific, USA) along with human gene‐specific forward and reverse primer sequences of the apoptotic genes and EGFR (Table ST1). The expression of the target genes was normalized to the Eukaryotic 18S rRNA."}},
  "data": [
    {"smiles": "c1cncc(C(c2c[nH]c3ccccc23)c2c[nH]c3ccccc23)c1", "note": "[1e]", "values": [
      {"measurement": "IC50", "setting": "MDA‐MB‐231", "value": "18.6 ± 1.84", "unit": "µM"},
      {"measurement": "expression level of human CD44 in tumor tissue", "setting": "[1]; with doxorubicin low dose vs low dose doxorubicin alone", "value": "significantly decreased"},
      {"measurement": "expression of human mesenchymal genes ALDH1A1, Fibronectin, N‐Cadherin, Vimentin", "setting": "[1]; with low dose of doxorubicin, CSC xenograft", "value": "significantly decreased"},
      {"measurement": "migratory potential", "setting": "[2]", "value": "significantly reduced"},
      {"measurement": "IC50", "setting": "HEK‐293", "value": "278 ± 13.5", "unit": "µM"},
      {"measurement": "expression of pro‐apoptotic genes Bax and Cytochrome‐C", "setting": "[3]", "value": "marked increase"}
    ]}
  ]
}
